Experimental findings from patent publication US9771326B2, “S1P and/or ATX modulating agents” (BIOGEN MA INC., priority 2012, dated 2017) are described below.

The target of one test is S1P3 (Homo sapiens, UniProt Q99500). The experiment in a line: S1P receptor calcium flux assay, agonist format (S1P3). The following applies: FLIPR TETRA. In kind it is cell-based. The text has this: (§1) S1P Receptor Activity Assays Agonist percentage activation determinations were obtained by assaying sample compounds and referencing the Emax control for each receptor profiled. Antagonist percentage inhibition determinations were obtained by assaying sample compounds and referencing the control EC80 wells for each receptor profiled. The samples were run using a “Single Addition” assay protocol for the agonist and antagonist assay run. The protocol design was as follows: Compound Preparation Master stock solution: Unless specified otherwise, all sample compounds were diluted in 100% anhydrous DMSO including all serial dilutions. All control wells contained identical solvent final concentrations as did the sample compound wells. Compound plate for assay: The sample compounds were transferred from a master stock solution into a daughter plate that was used in the assay. Each sample compound was diluted into assay buffer (1×HBSS with 20 mM HEPES and 2.5 mM Probenecid) at an appropriate concentration to obtain final concentrations. […] Assay was read for 180 seconds using the FLIPR^TETRA (This assay run added sample compounds and reference agonist to respective wells). […] Once baseline corrections were processed, maximum fluorescence values were exported and data manipulated to calculate percentage activation, percentage inhibition and Z′.
Chain of S1P3 (Q99500 whole entry): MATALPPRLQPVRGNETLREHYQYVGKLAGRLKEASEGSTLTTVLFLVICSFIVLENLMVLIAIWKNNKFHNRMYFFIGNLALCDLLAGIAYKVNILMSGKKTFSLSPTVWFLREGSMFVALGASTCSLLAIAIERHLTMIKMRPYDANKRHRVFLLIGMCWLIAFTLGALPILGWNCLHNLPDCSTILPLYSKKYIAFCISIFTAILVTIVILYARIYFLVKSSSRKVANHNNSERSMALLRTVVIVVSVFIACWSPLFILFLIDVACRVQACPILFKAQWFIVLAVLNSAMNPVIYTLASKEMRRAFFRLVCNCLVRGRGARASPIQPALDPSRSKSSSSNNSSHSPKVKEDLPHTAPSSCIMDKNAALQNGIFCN
A general note: Calcium assays in cells follow changes in intracellular calcium, usually with a dye or a luminescent sensor.
By EC50 is commonly meant the concentration at which the effect is half-maximal. Turning to `CC(C)(C)[C@H]1CC[C@H](Oc2cnc(-c3cccc(CNCCC(=O)O)c3)nc2)CC1` [Example 50, 3-(3-(5-(trans-4-tert-Butylcyclohexyloxy)pyrimidin-2-yl)benzylamino)propanoic acid], the EC50 is 50 to 5000 nM.

The target in another test is T1, S1P4 (Homo sapiens, UniProt O95977).
T1 sequence (O95977 1-384): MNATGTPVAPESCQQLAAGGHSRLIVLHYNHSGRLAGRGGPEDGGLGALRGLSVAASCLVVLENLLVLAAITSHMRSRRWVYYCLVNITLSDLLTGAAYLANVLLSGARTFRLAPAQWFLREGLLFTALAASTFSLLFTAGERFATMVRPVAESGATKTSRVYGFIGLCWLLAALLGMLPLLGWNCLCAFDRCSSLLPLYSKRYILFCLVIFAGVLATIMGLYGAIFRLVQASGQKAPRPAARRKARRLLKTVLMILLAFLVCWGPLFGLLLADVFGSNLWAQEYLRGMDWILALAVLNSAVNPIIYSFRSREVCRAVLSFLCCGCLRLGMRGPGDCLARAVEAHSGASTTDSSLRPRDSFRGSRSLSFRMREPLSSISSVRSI
The experiment in a line: S1P receptor calcium flux assay, agonist format (S1P4). The format is cell-based. Particulars: FLIPR TETRA.
Text: as §1
`CC(C)(C)[C@H]1CC[C@H](n2nc(-c3cccc(CNCCC(=O)O)c3)ccc2=O)CC1` [Example 48, 3-((3-(1-(trans-4-(tert-butyl)cyclohexyl)-6-oxo-1,6-dihydropyridazin-3-yl)benzyl)amino)propanoic acid]: the “S1P4 agonist activity EC50” value fell in the range of 1 to 5000 nM.

Another test deals with A2B5+ OPCs. The experiment in a line: OPC differentiation assay. Particulars: 72 h; rat OPCs in CNTF/T3 media, 3-day incubation, MSD analysis; read-out: positive in the OPC assay (concentration). In kind it is cell-based, Sprague Dawley rats. The method, then:
OPC Differentiation Assay
Enriched populations of oligodendrocytes were grown from post-natal day 2 (P2) female Sprague Dawley rats. The forebrain was dissected out and placed in Hank's buffered saline solution (HBSS; Invitrogen, Grand Island, N.Y.). The tissue was cut into 1 mm fragments and incubated at 37° C. for 15 minutes in 0.01% trypsin and 10 μg/mL DNase. Dissociated cells were plated on poly-L-lysine-coated T75 tissue culture flasks and grown at 37° C. for 10 days in Dulbecco's modified Eagle's medium (DMEM) with 20% fetal calf serum (Invitrogen). A2B5^+ OPCs were collected by shaking the flask overnight at 200 rpm and 37° C., resulting in a 95% pure population.
For the differentiation assay, 2 μM and 20 μM antagonist or the same concentrations of vehicle (DMSO) were applied to OPCs cultured in CNTF/T3 containing media. After a 3-day incubation, after a 3-day incubation, cell were lysed and then subjected to MSD (Meso Scale Discovery-R) analysis. EC50 was calculated by Prism using a nonlinear sigmoidal dose-response curve cells. Alternatively, cells were lysed in 80 μL lysis buffer (50 mM HEPES [4-(2-hydroxyethyl)-1-piperazine ethanesulfonic acid], pH 7.5, 150 mM NaCl, 1.5 mM MgCl2, 1 mM ethylene glycol tetraacetic acid [EGTA], 1% Triton X-100 and 10% glycerol) for 30 minutes at 4° C. After centrifugation at 14,000 g for 15 minutes, the supernatants were boiled in Laemmli sample buffer, subjected to 4-20% SDS-PAGE, and analyzed by Western blotting with anti-MBP, anti-myelin-associated glycoprotein (MAG), or anti-beta actin antibodies. The secondary antibodies used were anti-mouse IgG-HRP (horseradish peroxidase) and anti-rabbit IgG-HRP respectively.
For `CC(C)(C)[C@H]1CC[C@H](Oc2cccc(-c3cccc(CNCCC(=O)O)c3)c2)CC1` [Example 4, 3-(((3′-((trans-4-(tert-Butyl)cyclohexyl)oxy)-[1,1′-biphenyl]-3-yl)methyl)amino)propanoic acid], the minimal effective concentration was in the range of 0.5 to 5 µM.
Consider `CC(C)(C)[C@H]1CC[C@H](Oc2ccc(-c3cccc(CNC4CC(C(=O)O)C4)c3)cc2)CC1` (stereo partly drawn) [Example 10, 3-(((4′-((trans-4-(tert-Butyl)cyclohexyl)oxy)-[1,1′-biphenyl]-3-yl)methyl)amino)cyclobutanecarboxylic acid], for which the minimal effective concentration was 0.5 to 5 µM.
On to `CC(C)(C)[C@H]1CC[C@H](Oc2ccc(-c3ccc(CNCCC(=O)O)cc3)cc2)CC1` [Example 24, 3-((4′-(trans-4-tert-Butylcyclohexyloxy)biphenyl-4-yl)methylamino)propanoic acid], for which the minimal effective concentration fell in the range of 0.5 to 5 µM.
Take `CC(C)(C)[C@H]1CC[C@H](Oc2ccc(-c3csc(CNCCC(=O)O)n3)cc2)CC1` [Example 62, 3-(((4-(4-((trans-4-(tert-Butyl)cyclohexyl)oxy)phenyl)thiazol-2-yl)methyl)amino)propanoic acid]: the minimal effective concentration lay within 0.5 to 5 µM.
Same read-out and setting: the same measure for `CC(C)(C)[C@H]1CC[C@H](Oc2ccc(-n3cc(CN4CCC(C(=O)O)CC4)nn3)cc2)CC1` [Example 93, 1-((1-(4-(trans-4-tert-Butylcyclohexyloxy)phenyl)-1H-1,2,3-triazol-4-yl)methyl)piperidine-4-carboxylic acid]: 0.5 to 5 µM.
Turning to `CC(C)(C)[C@H]1CC[C@H](Oc2ccc(-c3cccc(CNCCC(=O)O)c3F)cc2)CC1` [Example 95], the minimal effective concentration lay within 0.5 to 5 µM.
`O=C(O)C1CCN(Cc2cccc(-c3ccc(OC4CCC5(CCC5)CC4)cc3)c2F)C1` (centres unmarked) [Example 106, 1-((2-fluoro-4′-(spiro[3.5]nonan-7-yloxy)-[1,1′-biphenyl]-3-yl)methyl)pyrrolidine-3-carboxylic acid]: the minimal effective concentration was 0.5 to 5 µM.
For the compound `O=C(O)C1CCN(Cc2cccc(-c3ccc(OC4CCC5(CCCC5)CC4)cc3)c2F)C1` (centres unmarked) [Example 114, 1-((2-fluoro-4′-(spiro[4.5]decan-8-yloxy)-[1,1′-biphenyl]-3-yl)methyl)pyrrolidine-3-carboxylic acid], the minimal effective concentration fell in the range of 0.5 to 5 µM.
Same read-out and setting: the same measure for `O=C(O)C1CCCN(Cc2cccc(-c3ccc(OC4CCC5(CCCC5)CC4)cc3)c2F)C1` (centres unmarked) [Example 115, 1-((2-fluoro-4′-(spiro[4.5]decan-8-yloxy)-[1,1′-biphenyl]-3-yl)methyl)piperidine-3-carboxylic acid]: 0.5 to 5 µM; for `CC(C)[C@H]1CC[C@H](Oc2ccc(-c3cccc(CN4CCC(C(=O)O)C4)c3F)cc2)CC1` (some centres unmarked) [Example 138, 1-((2-fluoro-4′-(((1r,4r)-4-isopropylcyclohexyl)oxy)-[1,1′-biphenyl]-3-yl)methyl)pyrrolidine-3-carboxylic acid]: 0.5 to 5 µM; for `CC(C)[C@H]1CC[C@H](Oc2ccc(-c3cccc(CN4CCCC(C(=O)O)C4)c3F)cc2)CC1` (some centres unmarked) [Example 139, 1-((2-fluoro-4′-(((1r,4r)-4-isopropylcyclohexyl)oxy)-[1,1′-biphenyl]-3-yl)methyl)piperidine-3-carboxylic acid]: 0.5 to 5 µM.
As for `CC(C)[C@H]1CC[C@H](Oc2ccc(-c3cccc(CN4CCC(C(=O)O)CC4)c3F)cc2)CC1` [Example 140, 1-((2-fluoro-4′-(((1r,4r)-4-isopropylcyclohexyl)oxy)-[1,1′-biphenyl]-3-yl)methyl)piperidine-4-carboxylic acid], the minimal effective concentration was 0.5 to 5 µM.
